# Patent publication US7282576B2, “Coactivators in the diagnosis and treatment of breast cancer” (Georgetown University, priority 2001, dated 2007)
# Assays:
# [1] = tested on: human FGF-BP gene promoter; assay: EGF activation of FGF-BP gene promoter luciferase reporter in ME-180 cells; format: cell-based; settings: EGF 5 ng/ml, 18 h
# Method: ME-180 cells were plated at a density of 5×10^5 cells per well and cultured for 24 h in IMEM supplemented with 5% dextran-charcoal-treated FBS. They were then incubated for 3 h in IMEM supplemented with Lipofectamine Plus and expression and reporter plasmids. Cells were washed and then incubated in IMEM for an additional 3 h before incubation for 18 h with EGF (5 ng/ml) in serum-free IMEM and subsequent lysis. Because of high background induction of pRL-CMV expression by EGF, firefly luciferase activity was normalized by protein concentration as described previously (32).
# Cells were transfected with 3 μg of either pcDNA3, pcDNA3-AIB1, or pcDNA3-AIB1-Δ3, together with a luciferase reporter plasmid containing the human FGF-BP gene promoter (1 μg) (32) (FIG. 6). After incubation of cells for 18 h in the absence or presence of EGF (5 ng/ml) in serum-free medium, cell extracts were prepared and assayed for luciferase activity. Activity was normalized by protein concentration, and the normalized activity values were then expressed relative to that of cells transfected with pcDNA3 and not exposed to EGF. Data are means±SEM of values from three independent experiments, each performed in triplicate. *P<0.01 versus the corresponding value for control cells.
# [2] = biological target: T1, human estrogen receptor α (Homo sapiens, UniProt P03372); assay: Transient transfection ERE-luciferase reporter assay in CHO cells; format: cell-based, hamster
# T1 construct: expressed in transfected cells; host or cells: CHO cells
# T1 sequence (P03372 1-595): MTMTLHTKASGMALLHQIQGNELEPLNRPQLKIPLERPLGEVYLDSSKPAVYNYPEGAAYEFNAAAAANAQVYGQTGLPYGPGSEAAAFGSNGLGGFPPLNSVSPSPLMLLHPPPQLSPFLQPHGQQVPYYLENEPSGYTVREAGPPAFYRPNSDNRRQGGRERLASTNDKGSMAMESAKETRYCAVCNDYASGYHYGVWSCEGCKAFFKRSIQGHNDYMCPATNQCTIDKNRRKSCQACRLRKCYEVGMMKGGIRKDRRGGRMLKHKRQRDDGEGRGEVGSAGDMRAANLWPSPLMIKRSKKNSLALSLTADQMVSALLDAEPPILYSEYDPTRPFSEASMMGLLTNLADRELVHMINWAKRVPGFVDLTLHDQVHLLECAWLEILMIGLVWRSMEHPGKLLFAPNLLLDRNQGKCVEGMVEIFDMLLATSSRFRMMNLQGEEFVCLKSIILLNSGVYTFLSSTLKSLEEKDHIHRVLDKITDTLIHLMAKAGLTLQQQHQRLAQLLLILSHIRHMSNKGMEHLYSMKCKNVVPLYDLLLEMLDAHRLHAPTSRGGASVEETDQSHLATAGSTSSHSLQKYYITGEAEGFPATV
# Method: To verify that the Δ3-AIB1 mRNA was translated in vivo, transient transfection of CHO cells (FIG. 2; see FIG. 4a) or COS-1 cells (see FIG. 5a) with the Δ3-AIB1 cDNA was performed. COS-1 and CHO cells were plated at densities of 2×10^5 and 5×10^5 cells per well, respectively, in six-well plates, and were cultured for 24 h at 37° C. under 5% CO2 in IMEM or Ham's F-12, respectively, supplemented with 5% FBS that had been treated with dextran-coated charcoal. The medium was then replaced with IMEM containing Lipofectamine Plus (Gibco BRL) and expression and reporter plasmids as indicated. After incubation for 3 h, the medium was replaced with IMEM (COS-1 cells) or Ham's F-12 (CHO cells), each containing 5% dextran-coated charcoal-treated FBS and nuclear receptor ligands. Cells were incubated for 24 h and then disrupted in passive lysis buffer (Promega). Portions (20 μl) of the resulting cell extract were assayed for both firefly and renilla luciferase activities with the Dual-Luciferase reporter assay system (Promega).
# The effect of the deletion of the bHLH and PAS A domains was next examined in Δ3-AIB1 on protein function. AIB1 acts as a coactivator for several nuclear receptors, including those for estrogen and progesterone, which are important in breast carcinogenesis. […]
factor of potentiation of the estrogen response at approximately equal amounts of recombinant protein ([2]; 0.3 μg AIB1 vector vs 3 μg Δ3-AIB1 vector),"increase in estrogen-induced luciferase activity ([2]; 3 μg expression vector, 10 nM estradiol-17β, 24 h) [fold]",Substance,"increase of EGF induction of FGF-BP promoter reporter activity ([1]; ME-180 cells, 3 μg vector)",increase in FGF-BP promoter reporter activity ([1]; ME-180 control cells with empty expression vector) [fold]
1.1,1.4,"AIB1: 156-kDa full-length nuclear receptor coactivator amplified in breast cancer 1, expressed from pcDNA3-AIB1",increased slightly,–
–,–,EGF: epidermal growth factor [reference compound],–,2.5
